Our source for the Activity, inhibition and IC50 values is ChEMBL document CHEMBL2163346, “Acetylcholinesterase inhibitors from the leaves of Macaranga kurzii” (J Nat Prod, 2012).

Assay [1] relates to KB. The assay is described as follows: Cytotoxicity against human KB cells at 20 uM after 72 hrs by neutral red staining. It is filed as functional, cell-based.
Assay [2] has as its target Acetylcholinesterase (Electrophorus electricus) (UniProt O42275). As to conditions: C2888, 50 uM.
Description: Inhibition of Electrophorus electricus C2888 AChE using acetylthiocholine iodide as substrate at 50 uM by Ellman's spectroscopic method
In assay [3] the target is Acetylcholinesterase (Electrophorus electricus, UniProt O42275).
Description: Inhibition of Electrophorus electricus C2888 AChE using acetylthiocholine iodide as substrate by Ellman's spectroscopic method
Assay [4] relates to KB. The assay is described as follows: Cytotoxicity against human KB cells after 72 hrs by neutral red staining. Type of assay: functional, cell-based.

Calls of active or inactive are those of the source. The rule behind the calls is not given here.

What is called IC50 is the concentration that gives 50% inhibition. A low value points to greater potency.

Acetylcholinesterase, sequence (O42275 whole entry): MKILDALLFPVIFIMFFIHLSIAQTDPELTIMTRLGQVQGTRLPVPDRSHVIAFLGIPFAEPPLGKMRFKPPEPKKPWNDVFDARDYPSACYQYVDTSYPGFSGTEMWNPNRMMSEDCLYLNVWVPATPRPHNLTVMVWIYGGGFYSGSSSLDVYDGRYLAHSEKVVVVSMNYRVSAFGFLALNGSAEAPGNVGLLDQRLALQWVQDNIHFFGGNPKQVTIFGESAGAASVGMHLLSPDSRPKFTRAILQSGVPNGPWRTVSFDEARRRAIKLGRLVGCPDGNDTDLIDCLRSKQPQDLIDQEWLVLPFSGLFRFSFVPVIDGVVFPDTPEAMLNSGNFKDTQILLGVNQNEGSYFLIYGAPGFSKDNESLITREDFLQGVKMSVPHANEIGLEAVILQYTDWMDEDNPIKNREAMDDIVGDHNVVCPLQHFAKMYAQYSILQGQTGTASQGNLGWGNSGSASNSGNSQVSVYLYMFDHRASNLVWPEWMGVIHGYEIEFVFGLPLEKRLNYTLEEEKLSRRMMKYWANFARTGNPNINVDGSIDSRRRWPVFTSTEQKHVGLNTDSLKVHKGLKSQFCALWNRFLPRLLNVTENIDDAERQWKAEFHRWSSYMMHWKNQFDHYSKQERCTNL
Acetylcholinesterase (Electrophorus electricus), sequence (O42275 24-633 limits assumed): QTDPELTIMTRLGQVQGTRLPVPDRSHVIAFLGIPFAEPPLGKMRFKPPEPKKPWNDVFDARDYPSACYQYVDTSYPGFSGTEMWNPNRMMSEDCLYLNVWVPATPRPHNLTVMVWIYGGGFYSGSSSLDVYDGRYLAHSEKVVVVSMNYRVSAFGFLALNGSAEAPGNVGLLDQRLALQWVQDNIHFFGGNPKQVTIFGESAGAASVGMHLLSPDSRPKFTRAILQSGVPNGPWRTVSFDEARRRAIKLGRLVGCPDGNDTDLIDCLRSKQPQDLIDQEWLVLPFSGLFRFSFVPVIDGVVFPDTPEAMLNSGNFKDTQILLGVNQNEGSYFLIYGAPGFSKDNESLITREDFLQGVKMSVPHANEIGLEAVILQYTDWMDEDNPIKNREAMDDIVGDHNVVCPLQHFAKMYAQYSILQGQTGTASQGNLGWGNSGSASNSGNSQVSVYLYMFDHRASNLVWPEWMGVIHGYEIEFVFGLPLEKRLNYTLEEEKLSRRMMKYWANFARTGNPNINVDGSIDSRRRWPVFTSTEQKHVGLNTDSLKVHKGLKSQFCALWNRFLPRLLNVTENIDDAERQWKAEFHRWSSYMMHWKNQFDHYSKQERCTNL

Turning to `CC1(C)C=Cc2c(cc3oc(-c4ccccc4)c(O)c(=O)c3c2O)O1` [MACAKURZIN C], in assay [1], the result was inactive. Besides, in assay [2], the inhibition entry is “inactive”. The compound further registered a concentration for half-maximal inhibition (IC50) in assay [3] of 20 µM.

Turning to `COc1cc(/C=C/c2ccccc2)c(CC=C(C)C)c(OC)c1`, the IC50 in assay [4] is 4 µM; in assay [3], 19 µM.

Take `COc1cc(/C=C/c2ccccc2)cc(OC)c1` [3,5-O-DIMETHYLPINOSYLVIN]: in assay [1], the outcome was inactive. The IC50 in assay [3] is 9 µM.

On to `CC(C)=CCc1c(O)cc(O)c2c(=O)c(O)c(-c3ccccc3)oc12`, for which the outcome in assay [1] was inactive.

In the case of `Oc1cc(/C=C/c2ccccc2)c2ccoc2c1` [FURANOKURZIN], in assay [1], the outcome was inactive. Moreover, the IC50 in assay [3] came to 42 µM.

For the compound `CC(C)=CCc1c(O)cc2c(c1O)C(=O)C[C@@H](c1ccccc1)O2`, the result in assay [1] was inactive. Besides, in assay [3], the concentration for half-maximal inhibition (IC50) was found to be 18 µM.

For the compound `CC(C)=CCc1c(O)cc(O)c2c1O[C@H](c1ccccc1)CC2=O` [GLABRANIN], the result in assay [1] was inactive. The IC50 in assay [3] is 23 µM.

With `C=C(C)C(O)Cc1c(O)cc2oc(-c3ccccc3)c(O)c(=O)c2c1O` (racemic), the result in assay [1] was inactive.

As to `COc1cc(O)c2c(=O)c(O)c(-c3ccccc3)oc2c1`, in assay [1], the result was inactive.

In the case of `CC(C)=CCc1c(O)cc2oc(-c3ccccc3)c(O)c(=O)c2c1O`, half-maximal inhibition in assay [4] (IC50) required 10 µM. This counts as double-digit micromolar.

In assay [4], `CC1(C)Oc2cc3oc(-c4ccccc4)c(O)c(=O)c3c(O)c2CC1O` (racemic) registered a half-inhibitory concentration (IC50) of 13 µM.

Turning to `COc1cc(/C=C\c2ccccc2)cc(OC)c1`, the outcome in assay [1] was inactive.

In the case of `O=c1c(O)c(-c2ccccc2)oc2cc(O)cc(O)c12`, the result in assay [1] was inactive.
